Data published in US10955421B2, “Detection of membrane proteins” (Oxford University Innovation Limited, priority 2017, dated 2021).
Values belong to the compound of their own block, whether it stands above or below them.

What was measured:
[1] = test system: human P2Y1 purinergic receptor (P2Y1R); assay: Native mass spectrometry of P2Y1R ligand binding in Fos-Choline-16
Experimental: P2Y1R and P2Y1R-MRS2500 complex were prepared as described in Zhang et al., Nature, 2015, 520, 317.
(§1) Purified GPCRs were buffer exchanged into 50-200 mM ammonium acetate containing Fos-Choline detergents at 2 times critical micelle concentration (CMC) by using Bio-Spin size exclusion spin column (Bio-rad) prior to mass spectrometer analysis. Detergent exchange could be also performed by size exclusion chromatography equipped with FPLC system. Protein samples were fractionized by the size exclusion columns equilibrated with 50-200 mM ammonium acetate containing Fos-choline detergents at 2 times CMC, and the protein fractions were collected and concentrated by centrifugation-based protein concentrators Vivaspin.
The measurement of GPCRs was performed on a modified Synapt G1 (Waters) or a modified Q-Exactive (Thermo) mass spectrometer. The data in Examples 2 and 4 were obtained using a Q-Exactive mass spectrometer, whereas the data in Example 3 were obtained using a Synapt G1 mass spectrometer.
The Q-Exactive mass spectrometer was set up according to Gault et al. (Nat. Methods 13, 333-336, 2016). Briefly, a gentle voltage gradient was applied (injection flatapole, inter flatapole, bent flatapole, transfer multipole: 7.9, 6.94, 5.9, 4 V respectively). The acceleration voltage applied in HCD cell was optimized for GPCRs (60-150 V) to remove the detergent micelles from protein ions. Spectra were acquired with ten microscans and the noise level parameter of 3 was applied. Backing pressure was maintained at 1.05-1.3×10^−9 mBar to allow better transmission of GPCR ions.
High-resolution MS was used to probe the drug/ligand interactions of human P2Y1R purified from insect cells. By controlled application of collisional activation, intact P2Y1R was liberated from its detergent micelle, preserving the non-covalent interactions formed in solution. The phosphate-containing detergent of Example 1 (Fos-16) was used in these experiments.

NTR1 [2] = biological target: T1, NTR1 (Rattus norvegicus, UniProt P20789); assay: Detergent screening by neurotensin-binding assay (BODIPY-NT8-13); details: BODIPY-NT8-13 bound to NTR1 in detergent extract, room temperature, 1 hr (FIG. 1C)
Experimental: (§2) The gene fragment of rat NTR1 (wild-type, 1-424) with exogenous c-terminal Flag- and His-tag was constructed into modified pHLsec vector for transient protein overexpression. Plasmids were transfected into HEK293T cells via a liposome-based method with Lipofectamine 2000 transfection reagent and the cells were harvested 24 hrs after transfection for further experiments.
Protein extract from HEK293T cells with NTR1 overexpression was incubated with BODIPY-labelled neurotensin 8-13 (BODIPY-NT8-13) at room temperature for 1 hr. The unbound BODIPY-NT8-13 was removed by Bio-Spin size exclusion spin column (Bio-rad) and the fluorescent signal of BODIPY-NT8-13 bound to receptor was detected by fluorescence microplate reader.
Various detergents were assessed for their ability to preserve the conformation and activity of NTR1. The detergents assessed were: (1) n-dodecyl-β-D-maltoside (DDM); (2) n-undecyl-β-D-maltoside (UDM); (3) n-nonyl-β-D-glucopyranoside (NG); (4) n-octyl-β-D-glucopyranoside (OG); (5) octyl glucose neopentyl glycol (OGNG); (6) n-octyl-β-D-thioglucopyranoside (OTG); (7) tetraethylene glycol monooctyl ether (C8E4); (8) hexaethylene glycol monodecyl ether (C10E6); (9) polyethylene glycol tert-octylphenyl ether (Triton X-100); (10) lauryldimethylamine-N-oxide (LDAO); and (11) hexadecylphosphocholine (Fos-Choline-16).

NTR1 [3] = biological target: T1, NTR1; assay: Detergent screening by western blotting (receptor aggregation); details: NTR1 solubilised from HEK293T cells in 1% detergent; compared with the other detergents tested (FIGS. 1A and B)
Experimental: as §2
HEK293T cells with NTR1 overexpression were lysed in lysis buffer (100 mM sodium phosphate, pH 7.2, 150 mM NaCl, 10% glycerol, 1× EDTA-free protease inhibitor cocktail from Roche) containing 1% various detergents for screening. Cell lysate was harvested after pelleting down the debris by centrifugation, and protein concentration was measured by Pierce 660 nm protein assay reagent (Pierce). Equal amounts of protein extract in different detergents were applied for western blotting to detect NTR1 by using an anti-His tag antibody. Semi-quantification was performed by Gel-pro software to quantify the protein amount and relative ratio of protein aggregation.
Various detergents were assessed for their ability to preserve the conformation and activity of NTR1. […]

NTR1 [4] = biological target: T1, NTR1; assay: Native mass spectrometry of PIP2 binding to NTR1 in Fos-Choline-16; details: after incubation of PIP2 and NTR1 in Fos-Choline-16 (FIG. 6A)
Experimental: as §1
PIP2 powder (Avanti) was dissolved into solvent containing chloroform, methanol and H2O with volume ratio of 20:9:1. The aliquoted PIP2 solution was dried out by gas-assisted evaporation and re-suspended into 50-200 mM ammonium acetate containing 0.00106% Fos-Choline-16, followed by sonication in water bath for 30 mins.
The measurement of GPCRs was performed on a modified Synapt G1 (Waters) or a modified Q-Exactive (Thermo) mass spectrometer. The data in Examples 2 and 4 were obtained using a Q-Exactive mass spectrometer, whereas the data in Example 3 were obtained using a Synapt G1 mass spectrometer. […]

[5] = 1:0.5 molar ratio of protein to ATP (FIG. 3B)
[6] = endogenous nucleotide, purified P2Y1R, UniDec deconvolution (FIG. 2A)

T1 sequence (P20789 whole entry, the tested form may be a part): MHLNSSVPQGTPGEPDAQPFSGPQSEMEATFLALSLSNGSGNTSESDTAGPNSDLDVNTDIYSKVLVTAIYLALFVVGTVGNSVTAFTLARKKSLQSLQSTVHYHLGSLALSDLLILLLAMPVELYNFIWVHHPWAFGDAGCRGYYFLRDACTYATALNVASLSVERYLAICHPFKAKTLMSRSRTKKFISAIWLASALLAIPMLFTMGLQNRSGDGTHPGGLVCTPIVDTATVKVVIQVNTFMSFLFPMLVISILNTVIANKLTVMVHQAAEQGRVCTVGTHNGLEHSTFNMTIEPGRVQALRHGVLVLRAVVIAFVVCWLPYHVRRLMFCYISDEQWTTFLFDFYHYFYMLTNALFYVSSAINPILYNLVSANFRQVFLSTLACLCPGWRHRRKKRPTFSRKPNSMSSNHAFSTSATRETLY

ADP-bound receptor converted into the ATP bound state [1, 5]: ~30%
apo receptor converted into the ATP bound state [1, 5]: around 80%
displacement of MRS2500 from the P2Y1R-MRS2500 complex ([1]; 1:2 molar P2Y1R:ATP, 30 min incubation at 37° C. (FIG. 4)): complete displacement of MRS2500
further decrease of ADP binding ([1]; 2 molar excess of ATP (FIG. 3C)): 40%
ATP-binding ratio of phosphorylated P2Y1R [1, 6]: 39.6%
ATP-binding ratio of receptor without phosphorylation [1, 6]: 41.5%
Compound: Nc1ncnc2c1ncn2[C@@H]1O[C@H](COP(=O)(O)OP(=O)(O)OP(=O)(O)O)[C@@H](O)[C@H]1O [ATP, adenosine 5′-triphosphate]

ligand binding activity (NTR1 [2]): substantially preserved
Compound: CCCCCCCCCCCCCCCCOP(=O)([O-])OCC[N+](C)(C)C [Fos-Choline-16, n-hexadecylphosphocholine]
receptor aggregation and oligomerisation (NTR1 [3]): less receptor aggregation and oligomerisation

Compound: CNc1nc(I)nc2c1ncn2[C@H]1C[C@H](OP(=O)(O)O)[C@]2(COP(=O)(O)O)C[C@H]12 [MRS2500, (1′R2′S,4′S,5′S)-4-(2-iodo-6-methylamino-purine-9-yl)-1-[(phosphato)methyl] 2(phosphato)bicycle[3.1.0]-hexane]
ADP binding in the presence of the drug ([1]; P2Y1R purified in the presence of MRS2500): No ADP binding was detected
percentage of interaction with P2Y1R ([1]; P2Y1R purified in the presence of MRS2500 (FIG. 2B)): 100 percentage

Compound: PIP2
PIP2 binding of NTR1 (NTR1 [4]): Multiple binding
